US20120220462A1, “INDUCING AGENT FOR PLANT ROOT” (Shiseido Company, Ltd., priority 2004, published 2012)

How the values were obtained:
Assay type in all cases: in vivo
[1] = test system: Paraserianthes falcataria Becker cuttings; assay: Root inducing performance test for Paraserianthes falcataria Becker cuttings; settings: Oxiberon 0, after two months
Excerpt: Paraserianthes falcataria Becker useful as a material for producing plywood is a tropical plant, but like other trees, cannot be transplanted by cutting as the trees age. The inventors tried transplanting Paraserianthes falcataria Becker, considered impossible to transplant by cuttings, using KODA and the existing root inducing agent Oxiberon (made by Bayer CropScience). For the cultivation soil, they used red gravel granules.

[2] = test system: Hypericum chinense cuttings; assay: Root inducing performance test for Hypericum chinense cuttings
Protocol: In this Example 3, in the same way as in Example 2, the specific ketol fatty acid (Ia) was used to test the root inducing performance for Hypericum chinense.
The compositions of the root inducing agents and the root inducing test procedure used in the test groups were the same as in Example 2. As a result of the tests, it was learned that there was 100% survival of the cuttings of Hypericum chinense in the case of use of the root inducing agent (10 μM) and IBL (50 ppm).
Note that the asterisks at the tops of the bar graphs of FIG. 1 indicate the rate of risk in measurement of the significant difference. One indicates a rate of risk of 5% or less, two a rate of risk of 1% or less, and three a rate of risk of 0.5% or less.

[3] = test system: Prunus×yedoensis (cherry tree) cuttings; assay: Root inducing performance test for Prunus×yedoensis cuttings (survival); settings: 10 branches, water 0%
Excerpt: 15 test groups including the root inducing agent of the present invention alone and combinations of the agent with other existing root inducing agents were used for a test of the root inducing performance for Prunus×yedoensis.
The existing root inducing agents used for the test were the indole inducing agent shown by the following formula (V) (hereinafter abbreviated as the “IBL”. See Japanese Patent Publication No. 10-77268A) and the commercially available root inducing agent Oxiberon (hereinafter abbreviated as “Oxy”, Made by Bayer CropScience).
Test Group (1): water, Test Group (2): KODA 10 μM, Test Group (3): KODA 100 μM, Test Group (4): Oxy, Test Group (5): IBL 50 ppm, Test Group (6): IBL 100 ppm, Test Group (7): KODA 10 μM+Oxy, Test Group (8): KODA 100 μM+Oxy, Test Group (9): KODA 10 μM+IBL 50 ppm, Test Group (10): KODA 100 μM+IBL 50 ppm, Test Group (11): KODA 10 μM+IBL 100 ppm, Test Group (12): KODA 100 μM+IBL 100 ppm, Test Group (13): KODA 10 μM+IBL 50 ppm+Oxy, Test Group (14): KODA 100 μM+IBL 50 ppm+Oxy, Test Group (15): KODA 100 μM+IBL 100 ppm+Oxy.
Branches of Prunus×yedoensis used for the test were purchased from Sumitomo Forestry Landscaping Co., Ltd. These were cut to lengths of 5 to 8 cm or so from the tips and transplanted into mixed soil in trays composed of red gravel and vermiculite blended in a 7:3 ratio. At this time, 10 branches were used for each test group. […]

[4] = test system: Hydrangea (variety name unknown) second node parts; assay: Evaluation Test 1: root inducing performance on cut second node parts of Hydrangea, sprayed, on laboratory dishes; settings: 25° C. continuous light, 20 days, five specimens, water group 1.1
Protocol: The second node parts of Hydrangea (variety name unknown) were cut out in August and placed on laboratory dishes, on which filter paper was laid.
Aqueous solutions of the specific ketol fatty acid (Ia) (concentrations 100 μM and 200 μM) were prepared and sprayed by sprayers on said cut Hydrangea, which were then allowed to stand covered for 2 hours. Note that the control group was sprayed with pure water and allowed to stand in the same way as the specific ketol fatty acid (Ia). Thereafter, water was added and the resultant product allowed to stand at 25° C. under continuous light for 20 days.
The average number of roots grown were counted for five specimens in each group, whereby the average for the water treatment group was 1.1, the specific ketol fatty acid (Ia) 100 μM group was 3.2, and the 200 μM group 3.1.

[5] = test system: Hydrangea (variety name unknown) branches including dormant buds; assay: Evaluation Test 2: root inducing performance on Hydrangea branch cuttings including dormant buds, in soil; settings: for Weight with soil attached / No. of roots grown/specimen: one month at 25° C.; for Weight with soil attached: water treatment 1.5; for No. of roots grown/specimen: water treatment 2.1
Protocol: Branches of Hydrangea (variety name unknown) including dormant buds were cut to 5 cm or so lengths in December and were transplanted into trays filled with soil composed of red gravel and vermiculite (7:3). Water or a specific ketol fatty acid (Ia) (10 μM, 100 μM) was sprayed, the specimens were then cultured in a 25° C. biochamber (12 hour bright/dark cycle) for one month. The weights in the state with the soil attached, when pulling the cuttings from the soil and the number of roots grown were measured. Note that an increase in the weight with the soil attached accompanies improvement of the soil holding rate accompanying development of fibrous roots and the proliferation of leaf buds.

CC/C=C\C/C=C\CC(=O)C(O)CCCCCCCC(=O)O (centres unmarked) [specific ketol fatty acid (Ia), 9-hydroxy-10-oxo-12(Z),15(Z)-octadecadienoic acid]
Maximum root length ([1]; KODA 10 (μm)): 27.3 mm
Root dried weight ([1]; KODA 10 (μm)): 1.8 mg
Root Inducing rate ([1]; KODA 10 (μm), sprayed): 44%
Maximum root length ([1]; KODA 100 (μm)): 5.3 mm
Root Inducing rate ([1]; KODA 100 (μm)): 11%
Root dried weight ([1]; KODA 100 (μm)): 2.9 mg
amount of root inducing compared with the water-treated group (FIG. 1) ([2]; Test Group (2): KODA 10 μM): clearly increased
amount of root inducing compared with the water-treated group (FIG. 1) ([2]; Test Group (3): KODA 100 μM): clearly increased
number of cuttings surviving seven weeks after the start of the test ([3]; Test Group (2): KODA 10 μM): 10%
number of cuttings surviving seven weeks after the start of the test ([3]; Test Group (3): KODA 100 μM): 10%
average number of roots grown ([4]; 100 μM aqueous solution sprayed): 3.2
average number of roots grown ([4]; 200 μM aqueous solution sprayed): 3.1
Weight with soil attached ([5]; 10 μM sprayed): 6.8 g/specimen
No. of roots grown/specimen ([5]; 10 μM sprayed): 5.3
development of leaf buds ([5]; 10 μM, 100 μM sprayed, one month, read from Table II results): promotes development of leaf buds
Weight with soil attached ([5]; 100 μM sprayed): 4.4 g/specimen
No. of roots grown/specimen ([5]; 100 μM sprayed): 6.5
